For 58 molecules, IC50 results are on record in patent US7943608B2, “Diazepinoes” (Merck Patent GmbH, priority 2005, dated 2011).

Structures are written as SMILES.

For the first assay, the target named is T1, His6-PDK1(Δ1-50) (Homo sapiens, UniProt O15530).
T1 construct: His6 (N)
T1 sequence (O15530 51-556): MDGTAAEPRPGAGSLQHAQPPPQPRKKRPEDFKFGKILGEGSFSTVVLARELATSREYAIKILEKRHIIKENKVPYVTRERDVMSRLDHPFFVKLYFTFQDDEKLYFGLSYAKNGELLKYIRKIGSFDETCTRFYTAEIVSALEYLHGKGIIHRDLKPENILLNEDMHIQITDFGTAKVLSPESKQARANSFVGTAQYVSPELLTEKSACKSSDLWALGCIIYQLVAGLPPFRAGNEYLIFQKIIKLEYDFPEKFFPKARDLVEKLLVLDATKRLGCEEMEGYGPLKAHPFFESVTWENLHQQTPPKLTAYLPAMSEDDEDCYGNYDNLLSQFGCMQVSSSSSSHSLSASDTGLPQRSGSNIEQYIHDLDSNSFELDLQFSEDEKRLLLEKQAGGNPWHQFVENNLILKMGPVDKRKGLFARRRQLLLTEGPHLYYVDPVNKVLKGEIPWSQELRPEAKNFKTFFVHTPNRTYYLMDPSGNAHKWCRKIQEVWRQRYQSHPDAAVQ
Description: Inhibition of PDK1 (IC50), 384-well flashplate kinase assay. It is filed as biochemical. To be noted: 4 μM ATP, 400 nM PDKtide, first part of Table 1 (compounds 1-31). Here is the method: Inhibition of PDK1 (IC50)
The kinase assay can be carried out as a 384-well flashplate assay. 3.4 nM His6-PDK1(Δ1-50), 400 nM PDKtide (biotin-bA-bA-[…]) and 4 μM ATP (with 0.2 μCi of 33P-ATP/well) are incubated at […] for 60 min in a total volume of 50 μl (50 mM TRIS, 10 mM Mg acetate, 0.1% of mercaptoethanol, 0.02% of Brij35, 0.1% of BSA, pH 7.5) with or without test substance (5-10 concentrations). The reaction is stopped using 25 μl of 200 mM EDTA solution, filtered with suction after 30 min at room temperature, and the wells are washed with 3 times 100 μl of 0.9% NaCl solution. The nonspecific content of the kinase reaction (blank) is determined using 100 nM staurosporine. Radioactivity is measured using a Topcount scintillation counter (PerkinElmer, USA). IC50 values are calculated using the RS1 computer program.
Broadly, the IC50 is the concentration needed to halve the response being measured. A higher IC50 goes with a need for much substance. `CN1CCC(N(C)c2ncc3c(n2)Nc2ccccc2NC3=O)CC1` [Compound 1]: the IC50 came to 2.3 µM. `Cc1ccc2c(c1)Nc1nc(N(C)C3CCN(C)CC3)ncc1C(=O)N2` [Compound 2, 7-Methyl-3-[methyl(1-methylpiperidin-4-yl)amino]-5,10-dihydro-2,4,5,10-tetraazadibenzo[a,d]cyclohepten-11-one]: the IC50 came out at 2.4 µM. `Cc1cc2c(cc1C)Nc1nc(N(C)C3CCN(C)CC3)ncc1C(=O)N2` [Compound 3, 7,8-Dimethyl-3-[methyl(1-methylpiperidin-4-yl)amino]-5,10-dihydro-2,4,5,10-tetraazadibenzo[a,d]cyclohepten-11-one] registered an IC50 of 1 µM. The molecule `CN1CCC(N(C)c2ncc3c(n2)Nc2ccc(Cl)cc2NC3=O)CC1` [Compound 4, 8-Chloro-3-[methyl(1-methylpiperidin-4-yl)amino]-5,10-dihydro-2,4,5,10-tetraazadibenzo[a,d]cyclohepten-11-one] registered an IC50 of 1.4 µM.

Molecule `COc1ccc2c(c1)NC(=O)c1cnc(N(C)C3CCN(C)CC3)nc1N2` [Compound 5, S-Methoxy-3-[methyl(1-methylpiperidin-4-yl)amino]-5,10-dihydro-2,4,5,10-tetraazadibenzo[a,d]cyclohepten-11-one] displayed an IC50 of 0.8 µM.

Take `Cc1ccc2c(c1)NC(=O)c1cnc(N(C)C3CCN(C)CC3)nc1N2` [Compound 6, 8-Methyl-3-[methyl(1-methylpiperidin-4-yl)amino]-5,10-dihydro-2,4,5,10-tetraazadibenzo[a,d]cyclohepten-11-one]: the midpoint of inhibition, the IC50, lay at 1.1 µM. Regarding `COc1ccc2c(c1)NC(=O)c1cnc(NC3CCN(C)CC3)nc1N2` [Compound 7, 8-Methoxy-3-(1-methylpiperidin-4-ylamino)-5,10-dihydro-2,4,5,10-tetraazadibenzo[a,d]cyclohepten-11-one], 3.1 µM corresponded to half-maximal inhibition (IC50).

In turn, `Cc1cc2c(cc1C)Nc1nc(NC3CCN(C)CC3)ncc1C(=O)N2` [Compound 8, 7,8-Dimethyl-3-(1-methylpiperidin-4-ylamino)-5,10-dihydro-2,4,5,10-tetraazadibenzo[a,d]cyclohepten-11-one] came in with an IC50 of 2.5 µM.

Turning to `Cc1ccc2c(c1)Nc1nc(NC3CCN(C)CC3)ncc1C(=O)N2` [Compound 9, 7-Methyl-3-(1-methylpiperidin-4-ylamino)-5,10-dihydro-2,4,56,10-tetraazadibenzo[a,d]cyclohepten-11-one], the IC50 came to 4.8 µM. `CN1CCC(N(C)c2ncc3c(n2)Nc2cc(Cl)ccc2NC3=O)CC1` [Compound 10] showed an IC50 of 1.7 µM. As to `CN1CCC(Nc2ncc3c(n2)Nc2cc(C(F)(F)F)ccc2NC3=O)CC1` [Compound 11], the IC50 is 3.9 µM. In the case of `Cc1ccc2c(c1)NC(=O)c1cnc(NC3CCN(C)CC3)nc1N2` [Compound 12], the IC50 worked out at 0.9 µM.

For the molecule `CN1CCC(N(C)c2ncc3c(n2)Nc2ccc(Br)cc2NC3=O)CC1` [Compound 13], the IC50 was 1.7 µM. As for `Cc1ccc2c(c1)NC(=O)c1cnc(N(C)C3CCN(C)CC3)nc1N2` [Compound 14], the IC50 is 0.4 µM.

With `CCOc1ccc2c(c1)NC(=O)c1cnc(N(C)C3CCN(C)CC3)nc1N2` [Compound 15], it took 0.9 µM to reach half-maximal inhibition (IC50). As for `CN1CCC(N(C)c2ncc3c(n2)Nc2ccc(C(C)(C)C)cc2NC3=O)CC1` [Compound 16], the midpoint of inhibition, the IC50, lay at 0.4 µM.

`CN1CCC(N(C)c2ncc3c(n2)Nc2ccc(C(F)(F)F)cc2NC3=O)CC1` [Compound 17] had an IC50 of 1.6 µM. As to `CN1CCC(Nc2ncc3c(n2)Nc2ccc(C(C)(C)C)cc2NC3=O)CC1` [Compound 18], the IC50 is 0.7 µM.

As for `Cc1ccc2c(c1)NC(=O)c1cnc(NC3CCN(C)CC3)nc1N2` [Compound 19], the IC50 came out at 0.6 µM. `CCN(c1ncc2c(n1)Nc1ccc(C)cc1NC2=O)C1CCN(C)CC1` [Compound 20]: the IC50 is 2.8 µM. As for `CCOc1ccc2c(c1)NC(=O)c1cnc(NC3CCN(C)CC3)nc1N2` [Compound 21], it took 1 µM to reach half-maximal inhibition (IC50). The same measure, in the same setting: the result for `Cc1ccc2c(c1C)Nc1nc(N(C)C3CCN(C)CC3)ncc1C(=O)N2` [Compound 22] reads 2.6 µM.

On to `Cc1ccc2c(c1C)Nc1nc(NC3CCN(C)CC3)ncc1C(=O)N2` [Compound 23], for which the IC50 amounted to 3.6 µM. Same read-out and setting: under `CN1CCC(N(C)c2ncc3c(n2)Nc2ccc(-c4ccsc4)cc2NC3=O)CC1` [Compound 25] stands 1 µM; under `Cc1ccc2c(c1)NC(=O)c1cnc(N(C(C)C)C3CCN(C)CC3)nc1N2` [Compound 26], 6.2 µM. Same read-out and setting: the result for `Cc1noc(C)c1-c1ccc2c(c1)NC(=O)c1cnc(N(C)C3CCN(C)CC3)nc1N2` [Compound 29] reads 3.2 µM.

The assay is the same for the next values; noted with them: 4 μM ATP, 400 nM PDKtide, second part of Table 1 (compounds 32-124).
As to `Cc1cc2c(cc1C)Nc1nc(N(C)C3CCN(C)CC3)ncc1C(=O)N2` [Compound 32], the IC50 worked out at 0.64 µM. `Cc1cc(C)c2c(c1)NC(=O)c1cnc(N(C)C3CCN(C)CC3)nc1N2` [Compound 33]: the IC50 came out at 1.3 µM. For the molecule `Cc1cc(C)c2c(c1)NC(=O)c1cnc(NC3CCN(C)CC3)nc1N2` [Compound 34], the IC50 was determined as 3.7 µM. Molecule `CN1CCC(N(C)c2ncc3c(n2)Nc2cc(Cl)c(Cl)cc2NC3=O)CC1` [Compound 35] registered an IC50 of 3.7 µM. The molecule `CN1CCC(Nc2ncc3c(n2)Nc2cc(Cl)c(Cl)cc2NC3=O)CC1` [Compound 36] gave an IC50 of 1.2 µM. Same read-out and setting: under `CN1CCC(Nc2ncc3c(n2)Nc2ccc(N(C)C)cc2NC3=O)CC1` [Compound 37] stands 0.19 µM; under `CN1CCC(N(C)c2ncc3c(n2)Nc2ccc(C#N)cc2NC3=O)CC1` [Compound 38], 0.6 µM; under `CCN1CCC(Nc2ncc3c(n2)Nc2cc(Cl)c(Cl)cc2NC3=O)CC1` [Compound 39], 4.9 µM.

On to `CCN1CCC(Nc2ncc3c(n2)Nc2ccc(C(C)(C)C)cc2NC3=O)CC1` [Compound 40], for which the IC50 is 1.4 µM.

In the case of `CCN1CCC(Nc2ncc3c(n2)Nc2c(ccc(C)c2C)NC3=O)CC1` [Compound 41], 6.3 µM corresponded to half-maximal inhibition (IC50).

Regarding `CCN1CCC(Nc2ncc3c(n2)Nc2c(C)cc(C)cc2NC3=O)CC1` [Compound 42], the IC50 was determined as 4.8 µM.

As for `CCOc1ccc2c(c1)NC(=O)c1cnc(NC3CCN(CC)CC3)nc1N2` [Compound 43], the 50% inhibitory concentration (IC50) stood at 2 µM. On to `CCN1CCC(Nc2ncc3c(n2)Nc2ccc(C(C)C)cc2NC3=O)CC1` [Compound 44], for which the IC50 worked out at 0.92 µM. With `CCN1CCC(Nc2ncc3c(n2)Nc2ccc(C)cc2NC3=O)CC1` [Compound 45], it took 1.5 µM to reach half-maximal inhibition (IC50).

Consider `Cc1cccc2c1Nc1nc(NC3CCN(C)CC3)ncc1C(=O)N2` [Compound 46], for which the concentration for half-maximal inhibition (IC50) was 2.4 µM.

`CCN1CCC(Nc2ncc3c(n2)Nc2cc(C)c(C)cc2NC3=O)CC1` [Compound 47] displayed an IC50 of 1.5 µM. In turn, `CCN(c1ncc2c(n1)Nc1ccc(C(C)C)cc1NC2=O)C1CCN(C)CC1` [Compound 48] returned an IC50 of 3 µM.

`CCOc1ccc2c(c1)NC(=O)c1cnc(NC3CCN(C(C)C)CC3)nc1N2` [Compound 49] returned an IC50 of 5.1 µM.

For `CC(C)c1ccc2c(c1)NC(=O)c1cnc(NC3CCN(C(C)C)CC3)nc1N2` [Compound 50], the IC50 is 1.2 µM.

`CC(C)N1CCC(Nc2ncc3c(n2)Nc2ccc(C(C)(C)C)cc2NC3=O)CC1` [Compound 51] returned an IC50 of 2.7 µM. For the molecule `CC(C)N1CCC(Nc2ncc3c(n2)Nc2ccc(F)cc2NC3=O)CC1` [Compound 52], the IC50 came out at 3.6 µM. The molecule `Cc1ccc2c(c1)NC(=O)c1cnc(NC3CCN(C(C)C)CC3)nc1N2` [Compound 53] had an IC50 of 2.4 µM. The molecule `CCN1CCC(Nc2ncc3c(n2)Nc2c(C)cccc2NC3=O)CC1` [Compound 54] returned an IC50 of 7.1 µM. On to `CCN1CCC(Nc2ncc3c(n2)Nc2ccc(C#N)cc2NC3=O)CC1` [Compound 55], for which the half-inhibitory concentration (IC50) was 2.3 µM.

In turn, `CN1CCC(Nc2ncc3c(n2)Nc2ccc(C#N)cc2NC3=O)CC1` [Compound 56] had an IC50 of 1.5 µM. The molecule `Cc1cc2c(cc1C)Nc1nc(NC3CCN(C(C)C)CC3)ncc1C(=O)N2` [Compound 57] yielded an IC50 of 2 µM. For the molecule `CC(C)N1CCC(Nc2ncc3c(n2)Nc2ccc(C#N)cc2NC3=O)CC1` [Compound 58], half-maximal inhibition (IC50) required 7.1 µM. Still for that read-out and setting: the result for `CCN(c1ncc2c(n1)Nc1ccc(F)cc1NC2=O)C1CCN(C)CC1` [Compound 59] reads 2.4 µM.

On to `CCN1CCC(Nc2ncc3c(n2)Nc2ccc(C(F)(F)F)cc2NC3=O)CC1` [Compound 60], for which the IC50 turned out to be 2.9 µM. On the same count and under the same terms, the result for `CC(C)N1CCC(Nc2ncc3c(n2)Nc2ccc(C(F)(F)F)cc2NC3=O)CC1` [Compound 61] reads 6.5 µM; that for `CN1CCC(Nc2ncc3c(n2)Nc2ccc(C(F)(F)F)cc2NC3=O)CC1` [Compound 62], 1.8 µM. For the molecule `CN1CCC(N(C)c2ncc3c(n2)Nc2ccc(-c4cccs4)cc2NC3=O)CC1` [Compound 63], it took 1 µM to reach half-maximal inhibition (IC50).
